Results taken from PMC5785531, “Pharmacokinetic parameters explain the therapeutic activity of antimicrobial agents in a silkworm infection model” (Scientific Reports, 2018).
Converted amounts (≈) assume the structure as drawn.

Legend:
Bacillus cereus JCM20037 = assay: MIC by broth microdilution assay; type: cell-based; details: median of three experiments
Description: (§1) Antimicrobial activity was assessed by determining the MIC by broth dilution assay according to our previous reports[21],[35],[36] as per the Clinical and Laboratory Standards Institute[37]. Briefly, serial dilutions of compound 5, compound 7, and positive controls were prepared in cation-adjusted Mueller-Hinton Broth (MHB, Difco, Franklin Lakes, NJ, USA), 100 µl of which was dispensed into each well of a round-bottomed 96-well plate. The final concentrations in the well ranged from 128 µg/ml to 0.0625 µg/ml. Bacteria were grown at 37 °C overnight on either Luria Bertani (tryptone 10 g/l, yeast extract 5 g/l, NaCl 10 g/l) or Tryptic Soy Broth (TSB, Difco) agar plates or sheep blood agar plates (Eiken Chemical Co. Ltd., Tokyo, Japan). Bacterial inoculum was prepared by direct suspension of the colonies in 0.9% saline, and adjusted to obtain a turbidity equivalent to a 0.5 McFarland standard using a spectrophotometer UV-1280 (Shimadzu Corp., Kyoto, Japan). The suspension was then diluted 1:20 in cation-adjusted MHB (Difco), and 10 µl of it was inoculated into each well of previously prepared 96-well plates containing compounds to obtain approximately 5 × 10^4 colony forming units/well and incubated at 37 °C for 20 h. […] Vancomycin (Wako Pure Chemicals) or norfloxacin (Sigma Aldrich, St Louis, MO, USA) were used as positive controls. Each plate contained a growth control well and a vehicle control well. The MIC was determined as the minimum concentration that inhibited the growth of the bacteria.

[1] = test system: Bacillus subtilis JCM2499; assay: MIC by broth microdilution assay; type: cell-based; details: median of three experiments
Description: as §1

[2] = test system: Enterococcus faecalis EF1; assay: MIC by broth microdilution assay; type: cell-based; details: median of three experiments
Description: as §1

Escherichia coli W3110 = assay: MIC by broth microdilution assay; type: cell-based; details: median of three experiments
Description: as §1

[3] = test system: Listeria monocytogenes 10403S; assay: MIC by broth microdilution assay; type: cell-based; details: median of three experiments
Description: as §1

MSSA1 (clinical isolate) = assay: MIC by broth microdilution assay; type: cell-based; details: Staphylococcus aureus, MSSA, median of three experiments
Description: as §1

NCTC8325 = assay: MIC by broth microdilution assay; type: cell-based; details: Staphylococcus aureus, MSSA / NCTC 8325, median of three experiments
Description: as §1

Newman = assay: MIC by broth microdilution assay; type: cell-based; details: Staphylococcus aureus, MSSA, median of three experiments
Description: as §1

[4] = test system: Pseudomonas aeruginosa PAO1; assay: MIC by broth microdilution assay; type: cell-based; details: median of three experiments
Description: as §1

Smith ATCC13709 = assay: MIC by broth microdilution assay; type: cell-based; details: Staphylococcus aureus, ATCC 13709 / MSSA, median of three experiments
Description: as §1

[5] = test system: Staphylococcus haemolyticus JCM2416; assay: MIC by broth microdilution assay; type: cell-based; details: median of three experiments
Description: as §1

[6] = test system: Staphylococcus pseudintermedius JCM17571; assay: MIC by broth microdilution assay; type: cell-based; details: median of three experiments
Description: as §1

Staphylococcus simulans = assay: MIC by broth microdilution assay; type: cell-based; details: median of three experiments
Description: as §1

[7] = test system: Streptococcus sanguinis JCM5708; assay: MIC by broth microdilution assay; type: cell-based; details: MHB with 2.5% lysed horse blood, 24 h, median of three experiments
Description: as §1

[8] = test system: USA300 FPR3757 (clinical isolate); assay: MIC by broth microdilution assay; type: cell-based; details: Staphylococcus aureus, MRSA, median of three experiments
Description: as §1

[9] = test system: Vancomycin- resistant E. faecalis EF5; assay: MIC by broth microdilution assay; type: cell-based; details: Enterococcus faecalis, median of three experiments
Description: as §1

[10] = Pharmacokinetics in silkworm hemolymph after intra-hemolymph injection; type: in vivo, Silkworms (Bombyx mori); details: for Cmax / AUC(0-t) / k el / AUC(0-inf) / C0 / clearance / MRT inf / Vd / half-life: Hu•Yo × Tsukuba•Ne, 50 ug, injected dose 50 μg intra-hemolymph; for AUC(0-t): 0 to last measured value (5 h); for k el: PKSolver non-compartment analysis, read-out: Lambda_z (converted); for AUC(0-inf): extrapolated to infinity; for C0: read-out: C0 (initial concentration, extrapolated time-zero value); for clearance: read-out: Cl (total clearance); for MRT inf: read-out: MRT 0-inf (mean residence time) (converted); for Vd: read-out: Vss (volume of distribution at steady state); for half-life: read-out: t1/2 (half-life at terminal phase)
Description: To gain an insight into the reason for the difference in the therapeutic activities of compounds 5 and 7, we evaluated the pharmacokinetic properties of both compounds in vivo in silkworms. We injected silkworms into the hemolymph with compound 5 or compound 7 (50 µg each) and collected the hemolymph from each injected silkworm at different time-points for high performance liquid chromatography (HPLC) analysis. The concentration-time profile was plotted and the pharmacokinetic parameters were analyzed using PKSolver[32] (Fig. 3a,b). […] The volume of distribution at steady state (Vss) value of compound 7 was larger than that of compound 5, further indicating the higher distribution capacity of compound 7 compared with compound 5. The concentrations of compounds 5 and 7 in the hemolymph decreased with time, with compound 7 having faster rate of elimination than compound 5. At 5 h, the concentration of compound 5 in the hemolymph was approximately 10-fold higher than that of 7. […] Both the area under the curves (AUC) at 5 h and that extrapolated to infinity were higher for compound 5 than for compound 7 in the silkworm.
Silkworms larvae hatched from eggs (Hu•Yo × Tsukuba•Ne, Ehime Sanshu, Ehime, Japan) were fed Silkmate 2S (Nosan Corporation, Yokohama, Japan) and grown at 27 °C until the fourth molt stage. They were, then, fed an antibiotic-free artificial food, Silkmate (Katakura Industries Co., Ltd., Tokyo, Japan), on the first day of fifth-instar larval stage. The next day, larvae (~2 g) were injected into the hemolymph with 50 µg of compounds 5 and 7 using a 1 ml syringe with a 27 G needle (Terumo Corporation, Tokyo, Japan). Silkworms were incubated after injection at 27 °C without feeding. The hemolymph was harvested from the limbs of individual silkworms at the indicated time, and the silkworms were killed after the harvest. The harvested hemolymph was mixed with an equal volume of acetonitrile followed by centrifugation at 15, 000 rpm for 10 min at 4 °C. The supernatant was collected, evaporated, and dissolved into 50% acetonitrile. The samples thus prepared were analyzed by high performance liquid chromatography (HPLC) equipped with a Waters 2998 Photodiode Array Detector (Waters Corporation, Milford, MA, USA) and a Waters 2707 Autosampler (Waters) using a Senshu-Pak Pegasil ODS-SP-100 column (4.6 Ø × 250 mm; Senshu Scientific, Tokyo, Japan) with gradient elution of 50–100% acetonitrile for 30 min at a flow rate of 1 ml/min. Standard curves for each compound were drawn by measuring the peak area on HPLC charts, and the amounts of each compound in the sample were determined. Mean concentrations from triplicate experiments were determined for each time-point and the pharmacokinetic parameters were determined using the PKSolver 2.0 ‘add-in’ for Excel 2007 on a computer running Windows 7[32]. Non-compartment analysis was performed with area under the curve calculated using the linear trapezoidal method. The terminal elimination slope, λz was calculated based on default parameters. Statistical analysis was performed using Prism 5 for Mac OS X, version 5.0 f (GraphPad Software, La Jolla, CA).

| SMILES | MIC (Bacillus cereus JCM20037) [µg/mL] | MIC [1] [µg/mL] | MIC [2] [µg/mL] | MIC (Escherichia coli W3110) [µg/mL] | MIC [3] [µg/mL] | MIC (MSSA1 (clinical isolate)) [µg/mL] | MIC (NCTC8325) [µg/mL] | MIC (Newman) [µg/mL] | MIC [4] [µg/mL] | MIC (Smith ATCC13709) [µg/mL] | MIC [5] [µg/mL] | MIC [6] [µg/mL] | MIC (Staphylococcus simulans) [µg/mL] | MIC [7] [µg/mL] | MIC [8] [µg/mL] | MIC [9] [µg/mL] | Cmax [10] [ng/mL] | AUC(0-t) [10] [ng·h/mL] | k el [10] [s⁻¹] | AUC(0-inf) [10] [ng·h/mL] | further results |
| --- | --- | --- | --- | --- | --- | --- | --- | --- | --- | --- | --- | --- | --- | --- | --- | --- | --- | --- | --- | --- | --- |
| O=C(OCc1cc(Cl)cc(Cl)c1)c1ccc([N+](=O)[O-])s1 [compound 5] | 1 (≈ 3.01 µM) | 1 (≈ 3.01 µM) | > 128 | > 128 | > 128 | 0.5 (≈ 1.51 µM) | 0.5 (≈ 1.51 µM) | 0.5 (≈ 1.51 µM) | > 128 | 0.5 (≈ 1.51 µM) | 0.25 (≈ 0.753 µM) | 0.125 (≈ 0.376 µM) | 0.25 (≈ 0.753 µM) | > 128 | 1 (≈ 3.01 µM) | > 128 | 23000 | 3000 | 8.33e-05 | 3480 | C0 [10]: 24000 ng/mL; clearance [10]: 0.23 mL/min; MRT inf [10]: 2.08 h; Vd [10]: 0.03 L; half-life [10]: 2.33 h; concentration in the hemolymph relative to compound 7 ([10]; at 5 h after injection of 50 µg): approximately 10 fold |
| O=C(OCc1ccccc1)c1ccc([N+](=O)[O-])s1 [compound 7] | 1 (≈ 3.8 µM) | 1 (≈ 3.8 µM) | > 128 | > 128 | > 128 | 1 (≈ 3.8 µM) | 1 (≈ 3.8 µM) | 1 (≈ 3.8 µM) | > 128 | 0.5 (≈ 1.9 µM) | 0.25 (≈ 0.95 µM) | 0.5 (≈ 1.9 µM) | 0.5 (≈ 1.9 µM) | > 128 | 1 (≈ 3.8 µM) | > 128 | 7000 | 733 | 0.000217 | 733 | C0 [10]: 7000 ng/mL; clearance [10]: 1.1 mL/min; MRT inf [10]: 0.733 h; Vd [10]: 0.044 L; half-life [10]: 0.883 h |
